Read-outs that look alike come from different tables or passages of the source.
Tests used:
[1] = system: Syrian golden hamsters (Meso cricetus auratus); test: Oral potency: compound mixed in chow, two-bottle free-choice ethanol intake; type: in vivo; settings: oral in chow, similar manner and equivalent dose range
Method: The oral potency of hexzein (7-O-ω-carboxypentyldaidzein) in reducing ethanol intake in Syrian golden hamsters (Meso cricetus auratus) was examined under a two-bottle free-choice protocol. Hexzein was mixed with Purina rodent meal (5755M) at 0 mg: 1 g (control), 2 mg: 1 g, 4 mg: 1 g, and 5 mg: 1 g ratios and the mixtures were pressed into 1×1×0.5 inch pellets. Food pellets, ethanol solution and water were provided continuously throughout the study and their intake were measured every day at 5 pm. Hexzein given in this manner did reduce ethanol intake. Ethanol intake in hamsters on 2 mg/g, 4 mg/g, and 5 mg/g hexzein-Chow were reduced by 18.3±3.8%, 47.8±7.4% and 56.5±5.4%, respectively.

[2] = Tissue distribution study, liver of hamsters on compound-Chow; type: in vivo, hamster; settings: hamsters on compound-Chow
[3] = system: 5-HT metabolism in hamster liver slices; test: 5-HT metabolism catalyzed by hamster liver slices; type: cell-based
Description: (§1) The effects of daidzin on monoamine metabolism were studied in hamster and rat liver and brain using tissue slices using 5-HT as the substrate. The effects of ethanol drinking on 5-HT metabolism in hamster liver and brain were examined. Freshly removed tissues were cut into small pieces (about 1 mm cubes) with a tissue-slicer, suspended in ice-cold phosphate buffered saline (PBS) (0.1 g/ml), and forced through a mesh 40 stainless steel screen mounted on a Millipore Swinnex Filter Holder. The minced tissues were allowed to sediment on ice before PBS was removed using a Pasteur pipette. The tissue slices were washed 5 more times each with 10 volumes of ice-cold PBS. After the final wash, tissues were suspended in 1 volume of PBS and dispensed using a micro-pipette with tips of i.d.=2 mm. 5-HT metabolism catalyzed by the tissue slices was assayed in a 1 ml assay medium containing PBS, 1 μM 5-HT, 100:1 tissue slices, and specified concentrations of daidzin or ethanol. Reactions were initiated by the addition of tissues and allowed to proceed for 30 min at 37° C. in a shaking water bath. Reactions were terminated by addition of 0.1 ml ice-cold 1 M HClO4, and 10 mM EDTA. Samples were kept on ice for 30 min and centrifuged to obtained clear supernatants. Contents of 5-HT, 5-HIAL, 5-HTOL and 5-HIAA in the supernatants were analyzed by HPLC as described before (Rooke et al. (2000) J. Med. Chem. 43:4169).

[4] = system: 5-HT metabolism in rat liver slices; test: 5-HT metabolism catalyzed by rat liver slices; type: cell-based
Description: as §1

[5] = system: 5-HT metabolism in brain slices; test: 5-HT metabolism in hamster brain slices; type: cell-based
Description: as §1, with “Samples were kept on ice for 30 min and centrifuged to obtained clear supernatants.” left out

[6] = system: 5-HT metabolism in brain slices; test: 5-HT metabolism in rat brain slices; type: cell-based
Description: as §1, with “Samples were kept on ice for 30 min and centrifuged to obtained clear supernatants.” left out

[7] = Urine [5-HTOL]/[5-HIAA] ratio after daidzin administration; type: in vivo; settings: dose that would suppress hamster ethanol intake by about 50%
[8] = system: golden hamsters; test: Ethanol drinking experiments, two-bottle choice; type: in vivo; settings: 0.07 mmol/day/hamster for 5 consecutive days
Method: Effects of the newly synthesized analogs on hamster ethanol intake were determined according to the method described below. Animals were male adult golden hamsters (outbred, Lakeview Lak: LVG[SYR]), purchased from Charles River Laboratories, Wilmington, Mass. 01887 or Harlan Sprague Dawley, Inc., Indianapolis, Ind. 46229. Upon arrival, hamsters were housed in a room maintained at 23° C., 35-45% humidity, with a 12/12 hr light/dark cycle (light on 0600-1800 hr), ad libitum access to Purina Chow (5001) and a 15% v/v ethanol solution. After a week, each hamster was transferred to an individual stainless steel cage (26×18×17.5 cm). Two 50 ml drinking bottles, one containing water and the other a 15% ethanol solution, were provided continuously. The bottles were placed in holders equipped with tilted platforms which direct spillage to tubes placed outside of the cages. The positions of the two drinking bottles on each cage were altered daily to prevent development of positional preference. Fluid intake was measured at 0900 hr each day. Hamsters that drank significant (>8 ml/day) and consistent (daily variance <±20%) amounts of ethanol solution were selected for testing. To establish baseline ethanol and water intake, 1 ml sterile saline was administered daily to each hamster between 1500-1600 hr for 6 days (saline control period, Day 1 to Day 6). A daily dose of 0.07 mmol of test compound was then administered for 5 consecutive days (treatment period, Day 7 to Day 11). After the last dose, ethanol and water intake were monitored for another 6 days (post treatment period, Day 12 to Day 17). […] At an equivalent dose, daidzin suppressed ethanol intake by about 55% (Table 1).

[9] = system: ethanol-preferring Syrian golden hamsters; settings: cited from earlier work
[10] = system: rats; settings: cited from earlier work
[11] = system: isolated hamster liver mitochondria; settings: cited from earlier work
[12] = system: isolated rat liver mitochondria; settings: cited from earlier work

Substance: Daidzin [Analog 42]
- Effect on ethanol intake (in words) [1]: failed to reduce ethanol intake
- Concentration found in the liver (in words) [2]: no daidzin could be detected
- 5-HT depletion [3]: not 5-HT depletion
- 5-HTOL formation [3]: increases in the formation of 5-HTOL
- 5-HIAA formation ([3]; 1 μM 5-HT, 30 min at 37° C.): inhibited 5-HIAA formation
- 5-HT depletion [4]: not 5-HT depletion
- 5-HTOL formation [4]: increases in the formation of 5-HTOL
- 5-HIAA formation ([4]; 1 μM 5-HT, 30 min at 37° C.): inhibited 5-HIAA formation
- Effect on 5-HT metabolism (in words) [5]: did not effect 5-HT metabolism
- Effect on 5-HT metabolism (in words) [6]: did not effect 5-HT metabolism
- urine [5-HTOL]/[5-HIAA] ratio [7]: increased urine [5-HTOL]/[5-HIAA] ratio
- EtOH intake suppression, % [8]: about 55%
- Ethanol intake (in words) ([9]; administered orally): does not affect hamster ethanol intake
- Ethanol intake (in words) ([9]; ethanol-preferring Syrian golden hamsters): selectively suppress ethanol intake
- Ethanol intake (in words) [10]: selectively suppress ethanol intake
- Conversion of 5-HT and DA into 5-HIAA and DOPAC [11]: inhibits the conversion of monoamines
- Conversion of 5-HT and DA into 5-HIAA and DOPAC [12]: inhibits the conversion of monoamines
